These results are taken from ChEMBL document CHEMBL1148856, “Thiazolone-acylsulfonamides as novel HCV NS5B polymerase allosteric inhibitors: convergence of structure-based drug design and X-ray crystallographic study” (Bioorg Med Chem Lett, 2007).

pIC50: −log10 of the molar value.

This test can be described thus: Inhibition of HCV BK NS5B polymerase. Details: species or system Hepacivirus hominis.
`CCc1ccc(/C=C2\SC(N[C@H](C(=O)NS(=O)(=O)c3ccc(C)cc3)c3ccc(F)cc3)=NC2=O)o1` (stereo in doubt) had a pIC50 of 5.03.

As for `CCc1ccc(/C=C2\SC(N[C@H](C(=O)NS(=O)(=O)c3cccc(C(=O)OC)c3)c3ccc(F)cc3)=NC2=O)o1` (stereo in doubt), the pIC50 is 4.85.

For `CCc1ccc(/C=C2\SC(N[C@H](C(=O)NS(=O)(=O)c3cccc(C(=O)O)c3)c3ccc(F)cc3)=NC2=O)o1` (stereo in doubt), the pIC50 was 4.92.

In the case of `CCc1ccc(/C=C2\SC(N[C@H](C(=O)NS(=O)(=O)c3ccc([N+](=O)[O-])cc3)c3ccc(Cl)cc3Cl)=NC2=O)o1` (stereo in doubt), the pIC50 was 5.18.

Turning to `CCc1ccc(/C=C2\SC(N[C@H](C(=O)NS(=O)(=O)c3cccc([N+](=O)[O-])c3)c3ccc(F)cc3)=NC2=O)o1` (stereo in doubt), the pIC50 was 4.82.

Molecule `CCc1ccc(/C=C2\SC(N[C@H](CS(=O)(=O)NC(=O)c3ccccc3)c3ccccc3)=NC2=O)o1` (stereo in doubt) showed a pIC50 of 4.80.

Broadly, the pIC50 is the IC50 on a negative log10 scale, so that one unit is a factor of ten. The low end stands for a high IC50, the high end for a low IC50.
